Results as given in US20260231590A1, “AROMATIC COMPOUND, ORGANIC SEMICONDUCTOR LAYER AND ORGANIC THIN FILM TRANSISTOR” (TOSOH CORPORATION, priority 2023, published 2026).

Tests used:
Assay type in all cases: physicochemical
[1] = Evaluation of solubility in organic solvents; details: room temperature (25° C.), complete dissolution by visual observation
Experimental: Toluene and n-octane were each added to predetermined amounts of the aromatic compounds obtained in Examples 1, 4, 5, 6, 7, 8, 9, 12, 13, 14, 15, 18, 19, 20, 22 and 23 to give compositions for film formation. The weight of each organic solvent required to completely dissolve the aromatic compound at room temperature (25° C.) was measured, and solubility (% by weight) was calculated. The determination of the point of complete dissolution was confirmed by visual observation.

[2] = Solution for forming an organic semiconductor layer: dissolved in toluene at 50° C., state after cooling to 25° C.; details: 0.20% by weight in toluene, dissolved at 50° C., after 10 hours at 25° C.
Experimental: In air, 1.74 mg of the 2,8-di(2-cyclohexylethyl)anthra[1,2-b:5,6-b′]dithiophene synthesized in Example 2 (compound 2) and 868 mg of toluene (FUJIFILM Wako Pure Chemical Industries Corporation, pure grade) were added to a 10-ml sample tube. After dissolution by heating to 50° C., the solution was allowed to cool at room temperature (25° C.), whereby a solution for forming an organic semiconductor layer was prepared. […] (the concentration of compound 2 was 0.20% by weight), confirming that compound 2 is a compound suitable for film formation by drop casting and inkjet printing.

[3] = as above; details: 0.44 mg in 434 mg of toluene, heated to 50° C., allowed to cool at room temperature (25° C.)

| SMILES | Solubility [% by weight] n-octane [1] | Solubility [% by weight] Toluene [1] | state of solution for forming an organic semiconductor layer [2] | state of solution for forming an organic semiconductor layer [3] |
| --- | --- | --- | --- | --- |
| CC(C)Cc1cc2ccc3cc4c(ccc5cc(CCC6CCCCC6)sc54)cc3c2s1 [Compound 5, 2-(2-Cyclohexylethyl)-8-isobutylanthra[1,2-b:5,6-b′]dithiophene] | ≥0.2 % by weight | ≥1.0 % by weight |  |  |
| CCCCCCCCc1cc2ccc3cc4c(ccc5cc(CCCCCCCC)sc54)cc3c2s1 [2,8-dioctylanthra[1,2-b:5,6-b′]dithiophene, reference compound] |  |  | remained in solution form |  |
| c1cc2cc(CCC3CCCCC3)sc2c2cc3ccc4cc(CCC5CCCCC5)sc4c3cc12 [Compound 2, 2,8-Di(2-cyclohexylethyl)anthra[1,2-b:5,6-b′]dithiophene] |  |  | remained in solution form |  |
| c1ccc(-c2ccc3c(c2)sc2c4ccc(-c5ccccc5)cc4sc32)cc1 [2,7-diphenyl[1]benzothieno[3,2-b][1]benzothiophene] |  |  |  | solid precipitation observed |
| c1cc2ccc3c(c2s1)-c1ccc2cc(CCC4CCCCC4)sc2c1-3 [Compound 19, 2-(2-Cyclohexylethyl) biphenyleno[1,2-b:5,6-b′]dithiophene] | ≥0.5 % by weight | ≥1.0 % by weight |  |  |
| c1cc2cc(CCC3CCCC3)sc2c2c1-c1c-2ccc2cc(CCC3CCCC3)sc12 [Compound 23, 2,7-Bis(2-cyclopentylethyl)biphenyleno[1,2-b:5,6-b′]dithiophene] | ≥0.2 % by weight | ≥1.0 % by weight |  |  |
| c1cc2cc(CCC3CCCCC3)sc2c2cc3ccc4cc(CCC5CCCC5)sc4c3cc12 [Compound 14, 2-(2-Cyclohexylethyl)-8-(2-cyclopentylethyl)anthra[1,2-b:5,6-b′]dithiophene] | ≥1.0 % by weight | ≥1.0 % by weight | remained in solution form |  |
| c1cc2cc(CCC3CCCC3)sc2c2cc3ccc4cc(CCC5CCCC5)sc4c3cc12 [Compound 10, 2,8-Di(2-cyclopentylethyl)anthra[1,2-b:5,6-b′]dithiophene] |  |  | remained in solution form |  |
| c1cc2ccc3cc4c(ccc5cc(CCCC6CCCCC6)sc54)cc3c2s1 [Compound 15, 2-(3-Cyclohexylpropyl)anthra[1,2-b:5,6-b′]dithiophene] | ≥0.5 % by weight | ≥1.0 % by weight |  |  |
| c1cc2ccc3cc4c(ccc5cc(CCC6CCCC6)sc54)cc3c2s1 [Compound 9, 2-(2-Cyclopentylethyl) anthra[1,2-b:5,6-b′]dithiophene] | ≥1.0 % by weight | ≥1.0 % by weight |  |  |
| c1cc2cc(CCC3CCCCC3)sc2c2c1-c1c-2ccc2cc(CCC3CCCCC3)sc12 [Compound 20, 2,7-Bis(2-cyclohexylethyl)biphenyleno[1,2-b:5,6-b′]dithiophene] | ≥0.5 % by weight | ≥1.0 % by weight | remained in solution form |  |
| c1cc2ccc3cc4c(ccc5cc(CCC6CCCCC6)sc54)cc3c2s1 [Compound 1, 2-(2-Cyclohexylethyl)anthra[1,2-b:5,6-b′]dithiophene] | ≥0.1 % by weight | ≥1.0 % by weight |  |  |

Second part, the compound after the results:

| Solubility [% by weight] n-octane [1] | Solubility [% by weight] Toluene [1] | state of solution for forming an organic semiconductor layer [2] | state of solution for forming an organic semiconductor layer [3] | SMILES |
| --- | --- | --- | --- | --- |
| ≥0.2 % by weight | ≥1.0 % by weight |  |  | CCCCCc1cc2ccc3cc4c(ccc5cc(CCC6CCCCC6)sc54)cc3c2s1 [Compound 7, 2-(2-Cyclohexylethyl)-8-pentylanthra[1,2-b:5,6-b′]dithiophene] |
| ≥0.5 % by weight | ≥1.0 % by weight | remained in solution form |  | CCCCCCc1cc2ccc3cc4c(ccc5cc(CCC6CCCC6)sc54)cc3c2s1 [Compound 13, 2-(2-Cyclopentylethyl)-8-hexylanthra[1,2-b:5,6-b′]dithiophene] |
|  |  | remained in solution form |  | CCCCCCCCc1ccc(CCc2cc3ccc4cc5c(ccc6cc(CCC7CCCCC7)sc65)cc4c3s2)cc1 [Compound 40, 2-(2-Cyclohexylethyl)-8-(4-octylphenylethyl)anthra[1,2-b:5,6-b′]dithiophene] |
| ≥0.5 % by weight | ≥1.0 % by weight |  |  | CCCCc1cc2ccc3cc4c(ccc5cc(CCC6CCCCC6)sc54)cc3c2s1 [Compound 6, 2-Butyl-8-(2-cyclohexylethyl)anthra[1,2-b:5,6-b′]dithiophene] |
|  |  | remained in solution form |  | CCCCCCc1cc2ccc3cc4c(ccc5cc(CCCC6CCCC6)sc54)cc3c2s1 [Compound 31, 2-(3-Cyclopentylpropyl)-8-hexylanthra[1,2-b:5,6-b′]dithiophene] |
| ≥0.5 % by weight | ≥1.0 % by weight |  |  | CCCc1cc2ccc3cc4c(ccc5cc(CCC6CCCCC6)sc54)cc3c2s1 [Compound 4, 2-(2-Cyclohexylethyl)-8-propylanthra[1,2-b:5,6-b′]dithiophene] |
| ≥0.5 % by weight | ≥1.0 % by weight | remained in solution form |  | CC(C)Cc1cc2ccc3cc4c(ccc5cc(CCC6CCCC6)sc54)cc3c2s1 [Compound 12, 2-(2-Cyclopentylethyl)-8-isobutylanthra[1,2-b:5,6-b′]dithiophene] |
|  |  | remained in solution form |  | CCCCCc1cc2ccc3cc4c(ccc5cc(CCCC6CCCCC6)sc54)cc3c2s1 [Compound 25, 2-(3-Cyclohexylpropyl)-8-pentylanthra[1,2-b:5,6-b′]dithiophene] |
| ≥0.2 % by weight | ≥1.0 % by weight | remained in solution form |  | CCCCCCc1cc2ccc3cc4c(ccc5cc(CCCC6CCCCC6)sc54)cc3c2s1 [Compound 18, 2-(3-Cyclohexylpropyl)-8-hexylanthra[1,2-b:5,6-b′]dithiophene] |
| ≥0.5 % by weight | ≥1.0 % by weight | remained in solution form |  | CCCCCCc1cc2ccc3cc4c(ccc5cc(CCC6CCCCC6)sc54)cc3c2s1 [Compound 8, 2-(2-Cyclohexylethyl)-8-hexylanthra[1,2-b:5,6-b′]dithiophene] |
